Test results published in ChEMBL document CHEMBL1201862, “PubChem BioAssay data set” (2004).
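Values below derive from 48-hour exposures of cells grown in 96-well plates, with endpoints linearly interpolated between the two concentrations bracketing the appropriate inhibition level. GI50: concentration for 50% inhibition of growth.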 Active and inactive are the calls of the source. Rule as the data show it: active = GI50 up to about 1.1 µM and inactive = higher.

How the values were obtained:
Assay in all cases: NCI-60 cell line screen, 48 h
MDA-MB-231 = tested on: MDA-MB-231
IGROV-1 = tested on: IGROV-1
MDA-N = tested on: MDA-N
OVCAR-3 = tested on: OVCAR-3
NCI-H522 = tested on: NCI-H522
UO-31 = tested on: UO-31
PC-3 = tested on: PC-3
HCT-116 = tested on: HCT-116
TK-10 = tested on: TK-10
U-251 = tested on: U-251
SR = tested on: SR
KM12 = tested on: KM12
CCRF-CEM = tested on: CCRF-CEM
SF-539 = tested on: SF-539
OVCAR-5 = tested on: OVCAR-5
HCT-15 = tested on: HCT-15
K562 = tested on: K562
SK-MEL-28 = tested on: SK-MEL-28
SK-MEL-2 = tested on: SK-MEL-2
A498 = tested on: A498

SMILES | GI50 (MDA-MB-231) | GI50 (IGROV-1) | GI50 (MDA-N) | GI50 (OVCAR-3) | GI50 (NCI-H522) | GI50 (UO-31) | GI50 (PC-3) | GI50 (HCT-116) | GI50 (TK-10) | GI50 (U-251) | GI50 (SR) | GI50 (KM12) | GI50 (CCRF-CEM) | GI50 (SF-539) | GI50 (OVCAR-5) | GI50 (HCT-15) | GI50 (K562) | GI50 (SK-MEL-28) | GI50 (SK-MEL-2) | GI50 (A498)
COc1cc(Br)cc2cc(-c3cn4ccsc4n3)c(=O)oc12 | 20.6 µM (inactive) | 19.9 µM (inactive) | 17 µM (inactive) | 35 µM (inactive) | 31 µM (inactive) | 23.8 µM (inactive) | 25.2 µM (inactive) | 25.6 µM (inactive) | 64.7 µM (inactive) | 30 µM (inactive) | 25.9 µM (inactive) | 18.9 µM (inactive) | 35 µM (inactive) | 36.2 µM (inactive) | 68.1 µM (inactive) | 33 µM | 32.1 µM (inactive) | 46.2 µM (inactive) | 58.9 µM (inactive) | –
O=C(O)Cc1ccc2c(c1)/C(=C1/Nc3ccccc3C1=O)C(=O)N2 | > 100 µM (inactive) | 0.355 µM (active) | 38.4 µM (inactive) | 14.1 µM (inactive) | 35 µM (inactive) | 49 µM (inactive) | 28.6 µM (inactive) | 24 µM (inactive) | > 100 µM (inactive) | 39.6 µM (inactive) | 21.9 µM (inactive) | 29.2 µM (inactive) | 34.4 µM (inactive) | – | > 100 µM (inactive) | 27.6 µM | 19.2 µM (inactive) | 54.3 µM (inactive) | 40.9 µM (inactive) | 31.7 µM (inactive)
CCn1c2c(c3c(C(=O)OC)c(O)ccc31)C(=O)c1ccccc1C2=O | 15.4 µM (inactive) | 3.61 µM (inactive) | 11.9 µM (inactive) | 16.4 µM (inactive) | 5.9 µM (inactive) | 4.57 µM (inactive) | 12.4 µM (inactive) | 13.1 µM (inactive) | 32.4 µM (inactive) | 14.7 µM (inactive) | 11.3 µM (inactive) | 16.6 µM (inactive) | 15 µM (inactive) | 13.2 µM (inactive) | 18.4 µM (inactive) | 7.85 µM | 20.4 µM (inactive) | 16.9 µM (inactive) | 11.5 µM (inactive) | –
O=C1/C(=C/Cc2ccco2)N=C(c2ccccc2)N1c1nc2c(Cl)cc(Cl)cc2s1 | 27.2 µM (inactive) | 29.9 µM (inactive) | 20.9 µM (inactive) | 22.5 µM (inactive) | – | 26.2 µM (inactive) | 28.3 µM (inactive) | 27.7 µM (inactive) | 42.7 µM (inactive) | 27 µM (inactive) | 14.9 µM (inactive) | 27.7 µM (inactive) | 17.9 µM (inactive) | 23 µM (inactive) | 52.2 µM (inactive) | 27.9 µM | 25.1 µM (inactive) | 57.1 µM (inactive) | 23.7 µM (inactive) | 15.2 µM (inactive)
O=C(c1ccccc1)n1c2ccc(Br)cc2c2nc3ccccc3nc21 | > 100 µM (inactive) | 67.6 µM (inactive) | > 100 µM (inactive) | 34.9 µM (inactive) | 43.7 µM (inactive) | 45.8 µM (inactive) | 43.2 µM (inactive) | > 100 µM (inactive) | > 100 µM (inactive) | 65 µM (inactive) | > 100 µM (inactive) | > 100 µM (inactive) | 58.9 µM (inactive) | > 100 µM (inactive) | > 100 µM (inactive) | > 100 µM | 72.8 µM (inactive) | > 100 µM (inactive) | 95.3 µM (inactive) | –
Nc1ccc(OCCCc2c(-c3ccccc3)[nH]c(N)nc2=O)cc1 | 29.9 µM (inactive) | 31.3 µM (inactive) | 31.9 µM (inactive) | 25.2 µM (inactive) | 18.4 µM (inactive) | 26 µM (inactive) | 41.7 µM (inactive) | 29 µM (inactive) | – | 69.5 µM (inactive) | > 100 µM (inactive) | 67.8 µM (inactive) | 43 µM (inactive) | 28.1 µM (inactive) | > 100 µM (inactive) | > 100 µM | 74.5 µM (inactive) | 27.5 µM (inactive) | – | 16.9 µM (inactive)
Cc1c2c(n3c(nc4ccccc43)c1C#N)N(c1ccc(Cl)cc1)CC2 | > 100 µM (inactive) | > 100 µM (inactive) | > 100 µM (inactive) | > 100 µM (inactive) | > 100 µM (inactive) | > 100 µM (inactive) | > 100 µM (inactive) | > 100 µM (inactive) | > 100 µM (inactive) | > 100 µM (inactive) | – | – | > 100 µM (inactive) | > 100 µM (inactive) | > 100 µM (inactive) | > 100 µM | > 100 µM (inactive) | > 100 µM (inactive) | > 100 µM (inactive) | > 100 µM (inactive)
